Structures are written as SMILES.

The test system of one series is Dengue virus. The series can be described thus: Antiviral activity against DENV-NGC-1 infected in […] incubated for 7 days by CellTiter 96 luminescent cell viability assay. To be noted: NGC-1, BHK, 168 h. It counts as functional, organism-based.
With `CN(C)CCn1nnnc1Sc1c(Cl)cc(C(=O)c2ccc(C(F)(F)F)cc2O)n1-c1c(C(=O)c2ccc(C(F)(F)F)cc2O)[nH]c(Cl)c1Cl`, the IC50 (in general, the midpoint of a concentration-inhibition curve) was 1870 nM.
On the same count and under the same terms, the value for `Cn1nnnc1Sc1c(Cl)cc(C(=O)c2ccc(C(F)(F)F)cc2O)n1-c1c(C(=O)c2ccc(C(F)(F)F)cc2O)[nH]c(Cl)c1Cl` was 1740 nM.

Another series relates to Zika virus. The series can be described thus: Antiviral activity against ZIKV-SMGC-1 infected in […] incubated for 7 days by CellTiter 96 luminescent cell viability assay. Particulars: SMGC-1, BHK, 168 h. Format: functional, organism-based.
For the molecule `CN(C)CCn1nnnc1Sc1c(Cl)cc(C(=O)c2ccc(C(F)(F)F)cc2O)n1-c1c(C(=O)c2ccc(C(F)(F)F)cc2O)[nH]c(Cl)c1Cl`, inhibition was half-maximal at 1690 nM (IC50).
In the case of `Cn1nnnc1Sc1c(Cl)cc(C(=O)c2ccc(C(F)(F)F)cc2O)n1-c1c(C(=O)c2ccc(C(F)(F)F)cc2O)[nH]c(Cl)c1Cl`, inhibition was half-maximal at 1240 nM (IC50).

Tested on in the next series: not listed separately
The series can be described thus: Cytotoxicity against […] infected with ZIKV-SMGC-1 incubated for 7 days by CellTiter 96 luminescent cell viability assay. It counts as toxicity, cell-based. To be noted: time 7 day.
For `CN(C)CCn1nnnc1Sc1c(Cl)cc(C(=O)c2ccc(C(F)(F)F)cc2O)n1-c1c(C(=O)c2ccc(C(F)(F)F)cc2O)[nH]c(Cl)c1Cl`, the CC50 (usually the concentration that lowers cell viability or growth by half) at 168 h was determined as 2820 nM.
In turn, `Cn1nnnc1Sc1c(Cl)cc(C(=O)c2ccc(C(F)(F)F)cc2O)n1-c1c(C(=O)c2ccc(C(F)(F)F)cc2O)[nH]c(Cl)c1Cl` displayed a CC50 at 168 h of 3120 nM.

Tested on in a further series: not listed separately
The series can be described thus: Cytotoxicity against […] infected with DENV-NGC-1 incubated for 7 days by CellTiter 96 luminescent cell viability assay. It counts as toxicity, cell-based. Particulars: time 7 day.
Regarding `CN(C)CCn1nnnc1Sc1c(Cl)cc(C(=O)c2ccc(C(F)(F)F)cc2O)n1-c1c(C(=O)c2ccc(C(F)(F)F)cc2O)[nH]c(Cl)c1Cl`, the CC50 at 168 h worked out at 2820 nM.
Regarding `Cn1nnnc1Sc1c(Cl)cc(C(=O)c2ccc(C(F)(F)F)cc2O)n1-c1c(C(=O)c2ccc(C(F)(F)F)cc2O)[nH]c(Cl)c1Cl`, the CC50 at 168 h was determined as 3120 nM.

The subject of another series is Japanese encephalitis virus. Description: Antiviral activity against JEV-SA14 infected in […] incubated for 7 days by CellTiter 96 luminescent cell viability assay. To be noted: 168 h. It counts as functional, organism-based.
Molecule `CN(C)CCn1nnnc1Sc1c(Cl)cc(C(=O)c2ccc(C(F)(F)F)cc2O)n1-c1c(C(=O)c2ccc(C(F)(F)F)cc2O)[nH]c(Cl)c1Cl` gave an IC50 of 2110 nM.
Same read-out and setting: the value for `Cn1nnnc1Sc1c(Cl)cc(C(=O)c2ccc(C(F)(F)F)cc2O)n1-c1c(C(=O)c2ccc(C(F)(F)F)cc2O)[nH]c(Cl)c1Cl` was 2790 nM.

Another series relates to Yellow fever virus. Description: Antiviral activity against YFV-17D infected in […] incubated for 7 days by CellTiter 96 luminescent cell viability assay. It counts as functional, organism-based. To be noted: 168 h.
The molecule `CN(C)CCn1nnnc1Sc1c(Cl)cc(C(=O)c2ccc(C(F)(F)F)cc2O)n1-c1c(C(=O)c2ccc(C(F)(F)F)cc2O)[nH]c(Cl)c1Cl` had an IC50 of 1970 nM.
Molecule `Cn1nnnc1Sc1c(Cl)cc(C(=O)c2ccc(C(F)(F)F)cc2O)n1-c1c(C(=O)c2ccc(C(F)(F)F)cc2O)[nH]c(Cl)c1Cl` registered an IC50 of 2470 nM.

Tested on in a further series: not listed separately
The series can be described thus: Cytotoxicity against […] infected with JEV-SA14 incubated for 7 days by CellTiter 96 luminescent cell viability assay. It counts as toxicity, cell-based. Particulars: time 7 day.
Regarding `CN(C)CCn1nnnc1Sc1c(Cl)cc(C(=O)c2ccc(C(F)(F)F)cc2O)n1-c1c(C(=O)c2ccc(C(F)(F)F)cc2O)[nH]c(Cl)c1Cl`, it took 4140 nM to reach half-maximal cytotoxicity (CC50 at 168 h).
On the same count and under the same terms, the value for `Cn1nnnc1Sc1c(Cl)cc(C(=O)c2ccc(C(F)(F)F)cc2O)n1-c1c(C(=O)c2ccc(C(F)(F)F)cc2O)[nH]c(Cl)c1Cl` was 2480 nM.

Tested on in another series: not listed separately
Description: Cytotoxicity against […] infected with YFV-17D incubated for 7 days by CellTiter 96 luminescent cell viability assay. To be noted: time 7 day. Format: toxicity, cell-based.
The molecule `CN(C)CCn1nnnc1Sc1c(Cl)cc(C(=O)c2ccc(C(F)(F)F)cc2O)n1-c1c(C(=O)c2ccc(C(F)(F)F)cc2O)[nH]c(Cl)c1Cl` returned a CC50 at 168 h of 4140 nM. That is a single-digit micromolar value.
The same measure, in the same setting: the value for `Cn1nnnc1Sc1c(Cl)cc(C(=O)c2ccc(C(F)(F)F)cc2O)n1-c1c(C(=O)c2ccc(C(F)(F)F)cc2O)[nH]c(Cl)c1Cl` was 2490 nM.

A further series concerns Enterovirus A71. The series can be described thus: Antiviral activity against EV71 infected in human RD cells incubated for 3 days by CellTiter 96 luminescent cell viability assay. It counts as functional, organism-based. Particulars: Enterovirus A, 71, RD, 72 h.
On to `CN(C)CCn1nnnc1Sc1c(Cl)cc(C(=O)c2ccc(C(F)(F)F)cc2O)n1-c1c(C(=O)c2ccc(C(F)(F)F)cc2O)[nH]c(Cl)c1Cl`, for which half-maximal inhibition (IC50) required 2470 nM. In other words, the single-digit micromolar range.

A further series relates to Coxsackievirus. The series can be described thus: Antiviral activity against CA6 infected in human RD cells incubated for 3 days by CellTiter 96 luminescent cell viability assay. Particulars: A6, RD, 72 h. Format: functional, organism-based.
In turn, `Cn1nnnc1Sc1c(Cl)cc(C(=O)c2ccc(C(F)(F)F)cc2O)n1-c1c(C(=O)c2ccc(C(F)(F)F)cc2O)[nH]c(Cl)c1Cl` returned an IC50 of 2750 nM.

For a further series, the system named is Coxsackievirus A16. The series can be described thus: Antiviral activity against CA16 infected in human RD cells incubated for 3 days by CellTiter 96 luminescent cell viability assay. Format: functional, organism-based. Particulars: Enterovirus A, 72 h.
Regarding `Cn1nnnc1Sc1c(Cl)cc(C(=O)c2ccc(C(F)(F)F)cc2O)n1-c1c(C(=O)c2ccc(C(F)(F)F)cc2O)[nH]c(Cl)c1Cl`, the IC50 was determined as 960 nM.

Tested on in the next series: not listed separately
The series can be described thus: Cytotoxicity against human RD cells infected with EV71 incubated for 3 days by CellTiter 96 luminescent cell viability assay. It counts as toxicity, cell-based. To be noted: time 3 day.
Take `CN(C)CCn1nnnc1Sc1c(Cl)cc(C(=O)c2ccc(C(F)(F)F)cc2O)n1-c1c(C(=O)c2ccc(C(F)(F)F)cc2O)[nH]c(Cl)c1Cl`: the 50% cytotoxic concentration (CC50) at 72 h is 3170 nM. In other words, the single-digit micromolar range.

Tested on in another series: not listed separately
The series can be described thus: Cytotoxicity against human RD cells infected with CA6 incubated for 3 days by CellTiter 96 luminescent cell viability assay. It counts as toxicity, cell-based. To be noted: time 3 day.
In the case of `Cn1nnnc1Sc1c(Cl)cc(C(=O)c2ccc(C(F)(F)F)cc2O)n1-c1c(C(=O)c2ccc(C(F)(F)F)cc2O)[nH]c(Cl)c1Cl`, the CC50 at 72 h stood at 4290 nM. In other words, the single-digit micromolar range.

Tested on in another series: not listed separately
Description: Cytotoxicity against human RD cells infected with CA16 incubated for 3 days by CellTiter 96 luminescent cell viability assay. Particulars: time 3 day. Format: toxicity, cell-based.
Consider `Cn1nnnc1Sc1c(Cl)cc(C(=O)c2ccc(C(F)(F)F)cc2O)n1-c1c(C(=O)c2ccc(C(F)(F)F)cc2O)[nH]c(Cl)c1Cl`, for which the CC50 at 72 h was found to be 4300 nM. In other words, the single-digit micromolar range.

Tested on in another series: not listed separately
Description: Selectivity index, ratio of CC50 for […] to IC50 for ZIKV-SMGC-1 infected in […]. Format: toxicity, cell-based. Particulars: read-out: Ratio CC50/IC50.
As to `CN(C)CCn1nnnc1Sc1c(Cl)cc(C(=O)c2ccc(C(F)(F)F)cc2O)n1-c1c(C(=O)c2ccc(C(F)(F)F)cc2O)[nH]c(Cl)c1Cl`, the selectivity ratio worked out at 1.67.
Regarding `Cn1nnnc1Sc1c(Cl)cc(C(=O)c2ccc(C(F)(F)F)cc2O)n1-c1c(C(=O)c2ccc(C(F)(F)F)cc2O)[nH]c(Cl)c1Cl`, the selectivity ratio worked out at 2.52.

Tested on in a further series: not listed separately
The series can be described thus: Selectivity index, ratio of CC50 for […] to IC50 for DENV-NGC infected in […]. Particulars: read-out: Ratio CC50/IC50. Format: toxicity, cell-based.
Regarding `CN(C)CCn1nnnc1Sc1c(Cl)cc(C(=O)c2ccc(C(F)(F)F)cc2O)n1-c1c(C(=O)c2ccc(C(F)(F)F)cc2O)[nH]c(Cl)c1Cl`, the selectivity ratio was determined as 1.51.
For the molecule `Cn1nnnc1Sc1c(Cl)cc(C(=O)c2ccc(C(F)(F)F)cc2O)n1-c1c(C(=O)c2ccc(C(F)(F)F)cc2O)[nH]c(Cl)c1Cl`, the selectivity ratio was found to be 1.79.

Tested on in a further series: not listed separately
The series can be described thus: Selectivity index, ratio of CC50 for […] to IC50 for JEV-SA14 infected in […]. It counts as toxicity, cell-based. To be noted: read-out: Ratio CC50/IC50.
Turning to `CN(C)CCn1nnnc1Sc1c(Cl)cc(C(=O)c2ccc(C(F)(F)F)cc2O)n1-c1c(C(=O)c2ccc(C(F)(F)F)cc2O)[nH]c(Cl)c1Cl`, the selectivity ratio stood at 1.96.
Still for that read-out and setting: the value for `Cn1nnnc1Sc1c(Cl)cc(C(=O)c2ccc(C(F)(F)F)cc2O)n1-c1c(C(=O)c2ccc(C(F)(F)F)cc2O)[nH]c(Cl)c1Cl` was 0.89.

Tested on in another series: not listed separately
Description: Selectivity index, ratio of CC50 for […] to IC50 for YFV-17D infected in […]. Format: toxicity, cell-based. To be noted: read-out: Ratio CC50/IC50.
As for `CN(C)CCn1nnnc1Sc1c(Cl)cc(C(=O)c2ccc(C(F)(F)F)cc2O)n1-c1c(C(=O)c2ccc(C(F)(F)F)cc2O)[nH]c(Cl)c1Cl`, the selectivity ratio was found to be 2.1.
On the same count and under the same terms, the value for `Cn1nnnc1Sc1c(Cl)cc(C(=O)c2ccc(C(F)(F)F)cc2O)n1-c1c(C(=O)c2ccc(C(F)(F)F)cc2O)[nH]c(Cl)c1Cl` was 1.01.

Tested on in a further series: not listed separately
Description: Selectivity index, ratio of CC50 for human RD cells to IC50 for EV71 infected in human RD cells. It counts as toxicity, cell-based. Particulars: read-out: Ratio CC50/IC50.
`CN(C)CCn1nnnc1Sc1c(Cl)cc(C(=O)c2ccc(C(F)(F)F)cc2O)n1-c1c(C(=O)c2ccc(C(F)(F)F)cc2O)[nH]c(Cl)c1Cl`: the selectivity ratio came to 1.28.

Tested on in the next series: not listed separately
The series can be described thus: Selectivity index, ratio of CC50 for human RD cells to IC50 for CA6 infected in human RD cells. Format: toxicity, cell-based. Particulars: read-out: Ratio CC50/IC50.
For `Cn1nnnc1Sc1c(Cl)cc(C(=O)c2ccc(C(F)(F)F)cc2O)n1-c1c(C(=O)c2ccc(C(F)(F)F)cc2O)[nH]c(Cl)c1Cl`, the selectivity ratio worked out at 1.56.

Tested on in a further series: not listed separately
Description: Selectivity index, ratio of CC50 for human RD cells to IC50 for CA16 infected in human RD cells. It counts as toxicity, cell-based. To be noted: read-out: Ratio CC50/IC50.
As to `Cn1nnnc1Sc1c(Cl)cc(C(=O)c2ccc(C(F)(F)F)cc2O)n1-c1c(C(=O)c2ccc(C(F)(F)F)cc2O)[nH]c(Cl)c1Cl`, the selectivity ratio was 4.48.
